Here are results for 2 compounds from ChEMBL document CHEMBL1155699, “Steroidal alkaloids from the leaves of Sarcococca coriacea of Nepalese origin” (J Nat Prod, 2001).

One experiment deals with Cholinesterase (Equus caballus, UniProt P81908). Kind of experiment: Inhibition of horse BChE.
A further experiment concerns the target Acetylcholinesterase (Electrophorus electricus, UniProt O42275). Kind of experiment: Inhibition of electric eel AChE by Ellman's method. In general terms: In Ellman's method for cholinesterases, released thiocholine reacts with DTNB.

Chain of Cholinesterase (P81908 whole entry): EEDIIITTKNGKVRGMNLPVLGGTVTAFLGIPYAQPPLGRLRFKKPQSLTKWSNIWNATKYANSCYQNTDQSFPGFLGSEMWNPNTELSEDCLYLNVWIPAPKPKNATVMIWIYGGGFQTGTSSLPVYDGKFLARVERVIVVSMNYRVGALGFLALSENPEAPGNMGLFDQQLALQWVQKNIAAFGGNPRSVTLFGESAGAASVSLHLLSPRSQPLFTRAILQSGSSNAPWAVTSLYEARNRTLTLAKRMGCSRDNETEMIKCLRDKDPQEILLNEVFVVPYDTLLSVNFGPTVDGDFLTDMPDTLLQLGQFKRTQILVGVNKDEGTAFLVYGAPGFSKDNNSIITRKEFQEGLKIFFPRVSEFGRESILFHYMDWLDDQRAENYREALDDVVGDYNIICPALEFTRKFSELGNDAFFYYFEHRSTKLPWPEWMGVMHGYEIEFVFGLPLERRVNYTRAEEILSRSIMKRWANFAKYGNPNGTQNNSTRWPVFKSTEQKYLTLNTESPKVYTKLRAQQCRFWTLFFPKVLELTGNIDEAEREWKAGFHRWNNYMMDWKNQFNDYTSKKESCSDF
Chain of Acetylcholinesterase (O42275 whole entry): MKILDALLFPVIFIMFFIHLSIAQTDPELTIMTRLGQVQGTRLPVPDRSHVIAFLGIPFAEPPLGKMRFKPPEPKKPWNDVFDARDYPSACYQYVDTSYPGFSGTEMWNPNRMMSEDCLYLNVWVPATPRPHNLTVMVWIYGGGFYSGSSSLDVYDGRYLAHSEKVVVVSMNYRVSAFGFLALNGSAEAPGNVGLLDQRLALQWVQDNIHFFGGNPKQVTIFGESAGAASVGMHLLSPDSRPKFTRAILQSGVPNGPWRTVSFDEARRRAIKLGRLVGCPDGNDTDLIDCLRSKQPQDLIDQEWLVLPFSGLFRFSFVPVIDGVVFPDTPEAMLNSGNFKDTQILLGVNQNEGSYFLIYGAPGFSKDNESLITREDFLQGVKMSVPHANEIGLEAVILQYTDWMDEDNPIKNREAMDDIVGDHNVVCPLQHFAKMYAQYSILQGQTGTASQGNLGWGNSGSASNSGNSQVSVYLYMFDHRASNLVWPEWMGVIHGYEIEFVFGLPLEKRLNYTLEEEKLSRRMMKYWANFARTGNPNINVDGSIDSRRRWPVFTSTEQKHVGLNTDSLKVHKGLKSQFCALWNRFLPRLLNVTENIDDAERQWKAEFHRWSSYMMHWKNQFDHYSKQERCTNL

Turning to `C/C=C(\C)C(=O)N[C@@H]1[C@H](OC(C)=O)[C@@H]2CC[C@@H]3[C@H](CC[C@]4(C)C([C@H](C)NC)=CC[C@@H]34)[C@@]2(C)C[C@@H]1OC(C)=O` [NEPAPAKISTAMINE], the results for the IC50 against Cholinesterase and against Acetylcholinesterase were 25 µM and 50.1 µM, respectively.
Regarding `CC(=O)O[C@H]1[C@@H](NC(=O)C=C(C)C)CC[C@]2(C)[C@H]3CC[C@]4(C)C([C@H](C)N(C)C)=CC[C@H]4[C@@H]3CC[C@@H]12` [VAGANINE D], the IC50 against Cholinesterase turned out to be 10 µM; against Acetylcholinesterase, 46.9 µM.

In general, IC50 refers to the concentration at which inhibition is half-maximal. Read a high IC50 as weaker potency.
